According to patent publication US20240158447A1, “PEPTIDES FOR USE IN THE TREATMENT OR PREVENTION OF MYOCARDIAL DAMAGE” (THE UNIVERSITY OF WESTERN AUSTRALIA, priority 2020, published 2024):

Assays:
Format in all cases: cell-based, mouse
[1] = tested on: wild type cardiac myocytes; test: Mitochondrial membrane potential (JC-1) after H2O2 in cardiac myocytes; conditions: 20 min incubation with 0.5-1 μM peptide; calcium-free; 30 μM H2O2 5 min; FIG. 3(c)
Procedure: (§1) Adult male C57BL/6J mice were anesthetized with pentobarbitone sodium (240 mg/kg) via intraperitoneal injection prior to excision of the heart. Ventricular myocytes were isolated. Mouse hearts were cannulated onto a Langendorff apparatus via the aorta and perfused retrogradely with Krebs-Henseleit Buffer (KHB) containing (in mM): 120 NaCl, 25 NaHCO3, 4.8 KCl, 2.2 MgSO4, 1.2 NaH2PO4 and 11 glucose (pH=7.35 with O2/CO2 at 37° C.) for 4 min at 37° C. Hearts were then perfused with KHB supplemented with 2.4 mg/ml collagenase B for 3 min, then 8 min perfusion in the presence of 40 μM calcium. […]
(§2) All in vitro studies were performed in freshly isolated myocytes at 37° C. […] Following a 20 min incubation with 0.5-1 μM AID(S)-TAT, AID-TAT, peptide 6 or peptide 7, fluorescent signal of individual myocytes was quantified using Metamorph 6.3 to measure signal intensity of manually traced cell regions. […]
Mitochondrial membrane potential (Ψm) was monitored in cardiac myocytes by assessing alterations in 5,5′,6,6′-tetrachloro-1,1′,3,3′-tetraethylbenzimidazolylcarbocyanine iodide fluorescence (JC-1: 200 nM, ex 480 nm, em 580/535 nm, Molecular Probes). […] Ratiometric 580/535 nm fluorescent signal was quantified and reported as a percentage from the baseline pre-treatment average. […]

[2] = tested on: cTnI-G203S mutant myocytes; test: Mitochondrial membrane potential (JC-1) response to BayK(−), cTnI-G203S myocytes (Example 10)
Procedure: (§3) In this experiment wt myocytes were pre-exposed to 0.1, 0.5 or 1 μM for 20 min and assessed changes in flavoprotein oxidation and ψm.
(§4) Measurement of mitochondrial membrane potential: The fluorescent indicator 5,5′,6,6′-tetrachloro1,1′,3,3′-tetraethylbenzimidazolylcarbocyanine iodide (JC-1) was used to measure mitochondrial membrane potential (ψm) as previously described (Viola H M, Arthur P G, Hool L C. Transient exposure to hydrogen peroxide causes an increase in mitochondria-derived superoxide as a result of sustained alteration in L-type Ca2+ channel function in the absence of apoptosis in ventricular myocytes. Circ Res. 2007; 100(7):1036-44). […] Images were acquired at 2 min intervals with 50 ms exposure. Metamorph 6.3 (Version 7.10.3) was used to quantify the signal by manually tracing myocytes. An equivalent region not containing cells was used as background and was subtracted. The 580 nm/535 nm ratiometric fluorescence values recorded over 6 min before and 4 min after addition of drugs were averaged and alterations in fluorescent ratios reported as the percentage increase from the basal average. To confirm that the signal was indicative of ψm, 40 mM NaCN was added at the end of each experiment to collapse ψm. In addition, individual 580 and 535 signals were assessed in each experiment to determine whether the fluorescent indicator was accurately measuring ψm. For calcium-free experiments, cells were exposed to calcium-free HBS (supplemented with 3 mM EGTA and 200 nM JC-1) for at least 3 h prior to measuring changes in ψm.
Based on results obtained from in vitro assessment of flavoprotein oxidation, the effect of 0.5 μM AID-TAT variants on changes in mitochondrial membrane potential (ψm) was further explored. Experiments were performed using JC-1 fluorescence under calcium-free conditions as previously described (Viola H, Johnstone V, Cserne Szappanos H, Richman T, Tsoutsman T, Filipovska A, et al. The L-type Ca(2+) channel facilitates abnormal metabolic activity in the cTnI-G2035 mouse model of hypertrophic cardiomyopathy. J Physiol. 2016; 594(14):4051-70; Viola H M, Shah A A, Johnstone V P A, Cserne Szappanos H, Hodson M P, Hool L C. Characterization and validation of a preventative therapy for hypertrophic cardiomyopathy in a murine model of the disease. Proc Natl Acad Sci U S A. 2020; 117(37):23113-24). […] FIG. 11 presents the mean+/−SE of JC-1 fluorescence from cTnI.2 wt and cTnI-G203S mutant myocytes before and after exposure to 10 μM BayK(−) in the presence of 1 μM AID(S)-TAT, and 0.5 μM of variant peptides as indicated. N=no. of animals, n=no. of cardiomyocytes. P values shown compared with AID(S)-TAT as determined by the Kruskal-Wallis test.

cTnI.2 wt myocytes = test: Mitochondrial membrane potential (JC-1) response to BayK(−), wt myocytes (Example 10); conditions: 0.5 μM peptide, calcium-free, FIG. 11A
Procedure: as §3
as §4, with “To confirm that the signal was indicative of ψm, 40 mM NaCN was added at the end of each experiment to collapse ψm.” left out, “For calcium-free experiments, cells were exposed to calcium-free HBS (supplemented with 3 mM EGTA and 200 nM JC-1) for at least 3 h prior to measuring changes in ψm.” left out
Based on results obtained from in vitro assessment of flavoprotein oxidation, the effect of 0.5 μM AID-TAT variants on changes in mitochondrial membrane potential (ψm) was further explored. Experiments were performed using JC-1 fluorescence under calcium-free conditions as previously described (Viola H, Johnstone V, Cserne Szappanos H, Richman T, Tsoutsman T, Filipovska A, et al. The L-type Ca(2+) channel facilitates abnormal metabolic activity in the cTnI-G2035 mouse model of hypertrophic cardiomyopathy. J Physiol. 2016; 594(14):4051-70; Viola H M, Shah A A, Johnstone V P A, Cserne Szappanos H, Hodson M P, Hool L C. Characterization and validation of a preventative therapy for hypertrophic cardiomyopathy in a murine model of the disease. Proc Natl Acad Sci U S A. 2020; 117(37):23113-24). […]

[3] = tested on: wild type cardiac myocytes; test: Intracellular superoxide (DHE) after H2O2 in cardiac myocytes; conditions: 20 min incubation with 0.5-1 μM peptide; 30 μM H2O2 5 min; FIG. 3(b)
Procedure: as §1, with “calcium. Following perfusion, aorta and atria were removed, and ventricles gently teased apart and triturated to dissociate myocytes into suspension.” for “calcium.”
as §2
Superoxide generation was assessed in cardiac myocytes using the fluorescent indicator dihydroethidium (DHE, 5 μM, 515-560 nm ex filter, 590 long pass em, Merck). […] Fluorescence was reported as percentage change in the slope of the signal measured at 20-40 min (treatment) over 1-10 min (pre-treatment).

AIDP7-TAT: QQQEEDLKGYLDWITQAE with TAT sequence
mitochondrial membrane potential (JC-1) [1]: reduced the mitochondrial membrane potential
BayK(−) induced increase in ψm (JC-1 fluorescence) ([2]; 0.5 μM peptide, calcium-free, FIG. 11B): significantly attenuated the response
normalising mitochondrial metabolic activity (in vitro, overall) ([2]; flavoprotein oxidation and JC-1 data together): most effective in normalising mitochondrial metabolic activity
BayK(−) induced increase in ψm (JC-1 fluorescence) (cTnI.2 wt myocytes): significantly attenuated the response
H2O2 induced superoxide production (DHE) [3]: reduced the generation of superoxide in a statistically significant manner
